This is an account of results in PMC6268108, “Design, Practical Synthesis, and Biological Evaluation of Novel 6-(Pyrazolylmethyl)-4-quinoline-3-carboxylic Acid Derivatives as HIV-1 Integrase Inhibitors” (Molecules, 2012).

The target in one series is T1, HIV-1 integrase (Human immunodeficiency virus type 1 group M subtype B, UniProt P04585).
T1 construct: pre-incubated with 800 ng integrase at 37.8 °C in the reaction buffer
As to the kind of experiment: HIV-1 integrase strand transfer (ST) activity assay. It counts as biochemical. Conditions: 1 h; read-out: IC50 (inhibition of strand transfer). The procedure:
A HIV-1 integrase strand transfer (ST) activity assay was carried out to test the inhibition effectiveness of our compounds as described previously with some minor modifications. Compounds diluted in DMSO were pre-incubated with 800 ng integrase at 37.8 °C in the reaction buffer in the absence of Mn^2+ for 10 min. Subsequently, 1.5 pmol donor DNA and 9 pmol target DNA were added and the reaction was initiated by the addition of 10 mmol/L Mn^2+ into the final reaction volume. The reactions were carried out at 37.8 °C for 1 h and subsequent detection procedure was applied to detect the assay signals.

One may read the inhibition as the share of the control response that was lost under treatment. The melting point is the temperature of the solid-liquid transition. For the compound `Cc1nn(Cc2ccc3[nH]cc(C(=O)O)c(=O)c3c2)c(C)c1Cl` [Compound 11b, 6-((4-Chloro-3,5-dimethyl-1H-pyrazol-1-yl)methyl)-4-oxo-1,4-dihydroquinoline-3-carboxylic acid], the melting point lay within 263 to 265 °C. Besides, on HIV-1 integrase, the inhibition at 100 µg/mL was below 50%.

For `Cc1nn(Cc2ccc3c(c2)c(=O)c(C(=O)O)cn3CC(=O)O)c(C)c1Cl` [Compound 13b, 1-(Carboxymethyl)-6-((4-chloro-3,5-dimethyl-1H-pyrazol-1-yl)methyl)-4-oxo-1,4-dihydroquinoline-3-carboxylic acid], the melting point was 292 to 295 °C. In addition, the inhibition at 100 µg/mL at HIV-1 integrase was below 50%.

For the compound `Cc1cc(C)n(Cc2ccc3c(c2)c(=O)c(C(=O)O)cn3CCCS)n1` [Compound 14a, 1-(3-Mercaptopropyl)-6-((3,5-dimethyl-1H-pyrazol-1-yl)methyl)-4-oxo-1,4-dihydroquinoline-3-carboxylic acid], the melting point lay within 225 to 226 °C. Further, on HIV-1 integrase, the inhibition at 100 µg/mL was below 50%.

`Cc1nn(Cc2ccc3[nH]cc(C(=O)O)c(=O)c3c2)c(C)c1Br` [Compound 11c, 6-((4-Bromo-3,5-dimethyl-1H-pyrazol-1-yl)methyl)-4-oxo-1,4-dihydroquinoline-3-carboxylic acid] came in with a melting point of 253 to 256 °C. Also, the inhibition at 100 µg/mL at HIV-1 integrase is below 50%.

`Cc1cc(C)n(Cc2ccc3c(c2)c(=O)c(C(=O)O)cn3CC(=O)O)n1` [Compound 13a, 1-(Carboxymethyl)-6-((3,5-dimethyl-1H-pyrazol-1-yl)methyl)-4-oxo-1,4-dihydroquinoline-3-carboxylic acid] gave a melting point above 300 °C. Moreover, the inhibition at 100 µg/mL on HIV-1 integrase is below 50%.

`Cc1nn(Cc2ccc3c(c2)c(=O)c(C(=O)O)cn3Cc2ccc([N+](=O)[O-])cc2)c(C)c1Cl` [Compound 16b, 1-(4-Nitrobenzyl)-6-((4-chloro-3,5-dimethyl-1H-pyrazol-1-yl)methyl)-4-oxo-1,4-dihydroquinoline-3-carboxylic acid] gave a melting point of 282 to 284 °C. Moreover, the inhibition at 100 µg/mL on HIV-1 integrase is below 50%.

As to `Cc1cc(C)n(Cc2ccc3c(c2)c(=O)c(C(=O)O)cn3Cc2ccc([N+](=O)[O-])cc2)n1` [Compound 16a, 1-(4-Nitrobenzyl)-6-((3,5-dimethyl-1H-pyrazol-1-yl)methyl)-4-oxo-1,4-dihydro-quinoline-3-carboxylic acid], the melting point is 274 to 276 °C. Besides, at HIV-1 integrase, the inhibition at 100 µg/mL was below 50%.

In turn, `Cc1nn(Cc2ccc3c(c2)c(=O)c(C(=O)O)cn3CC(O)CO)c(C)c1Br` (stereo not drawn) [Compound 12c, 1-(2,3-Dihydroxypropyl)-6-((4-bromo-3,5-dimethyl-1H-pyrazol-1-yl)methyl)-4-oxo-1,4-dihydroquino-line-3-carboxylic acid] had a melting point of 267 to 269 °C. Further, the inhibition at 100 µg/mL on HIV-1 integrase is below 50%.

With `Cc1nn(Cc2ccc3c(c2)c(=O)c(C(=O)O)cn3Cc2ccc([N+](=O)[O-])cc2)c(C)c1Br` [Compound 16c, 1-(4-Nitrobenzyl)-6-((4-bromo-3,5-dimethyl-1H-pyrazol-1-yl)methyl)-4-oxo-1,4dihydroquinoline-3-carboxylic acid], the melting point was in the range of 266 to 268 °C. Besides, at HIV-1 integrase, the inhibition at 100 µg/mL is below 50%.

Consider `Cc1nn(Cc2ccc3c(c2)c(=O)c(C(=O)O)cn3CC(O)CO)c(C)c1Cl` (stereo not drawn) [Compound 12b, 1-(2,3-Dihydroxypropyl)-6-((4-chloro-3,5-dimethyl-1H-pyrazol-1-yl)methyl)-4-oxo-1,4-dihydro-quinoline-3-carboxylic acid], for which the melting point was 278 to 280 °C. Besides, the inhibition at 100 µg/mL at HIV-1 integrase is below 50%.

In turn, `Cc1cc(C)n(Cc2ccc3[nH]cc(C(=O)O)c(=O)c3c2)n1` [Compound 11a, 6-((3,5-Dimethyl-1H-pyrazol-1-yl)methyl)-4-oxo-1,4-dihydroquinoline-3-carboxylic acid] came in with a melting point of 254 to 256 °C. Also, the inhibition at 100 µg/mL at HIV-1 integrase is below 50%.

For the compound `Cc1nn(Cc2ccc3c(c2)c(=O)c(C(=O)O)cn3CCCS)c(C)c1Cl` [Compound 14b, 1-(3-Mercaptopropyl)-6-((4-chloro-3,5-dimethyl-1H-pyrazol-1-yl)methyl)-4-oxo-1,4-dihydro-quinoline-3-carboxylic acid], the melting point lay within 238 to 240 °C. Also, on HIV-1 integrase, the inhibition at 100 µg/mL was below 50%.

As for `Cc1nn(Cc2ccc3c(c2)c(=O)c(C(=O)O)cn3CCCS)c(C)c1Br` [Compound 14c, 6-((4-Bromo-3,5-dimethyl-1H-pyrazol-1-yl)methyl)-1-(3-mercaptopropyl)-4-oxo-1,4-dihydroquinoline-3-carboxylic acid], the melting point was 231 to 233 °C. Also, the inhibition at 100 µg/mL on HIV-1 integrase is below 50%.

Take `Cc1cc(C)n(Cc2ccc3c(c2)c(=O)c(C(=O)O)cn3CC(O)CO)n1` (stereo not drawn) [Compound 12a, 1-(2,3-Dihydroxypropyl)-6-((3,5-dimethyl-1H-pyrazol-1-yl)methyl)-4-oxo-1,4-dihydroquinoline-3-carboxylic acid]: the melting point was in the range of 187 to 189 °C. On HIV-1 integrase, the inhibition at 100 µg/mL is below 50%.

With `Cc1cc(C)n(Cc2ccc3c(c2)c(=O)c(C(=O)O)cn3Cc2ccc(F)cc2)n1` [Compound 15a, 1-(4-Fluorobenzyl)-6-((3,5-dimethyl-1H-pyrazol-1-yl)methyl)-4-oxo-1,4-dihydro-quinoline-3-carboxylic acid], the melting point is 271 to 273 °C. The inhibition at 100 µg/mL on HIV-1 integrase is below 50%.

As for `Cc1nn(Cc2ccc3c(c2)c(=O)c(C(=O)O)cn3Cc2ccc(F)cc2)c(C)c1Br` [Compound 15c, 1-(4-Fluorobenzyl)-6-((4-bromo-3,5-dimethyl-1H-pyrazol-1-yl)methyl)-4-oxo-1,4-dihydro-quinoline-3-carboxylic acid], the melting point lay in the range of 255 to 257 °C. Besides, the inhibition at 100 µg/mL on HIV-1 integrase is below 50%.

The compound `Cc1nn(Cc2ccc3c(c2)c(=O)c(C(=O)O)cn3Cc2ccc(F)cc2)c(C)c1Cl` [Compound 15b, 1-(4-Fluorobenzyl)-6-((4-chloro-3,5-dimethyl-1H-pyrazol-1-yl)methyl)-4-oxo-1,4-dihydro-quinoline-3-carboxylic acid] registered a melting point of 239 to 241 °C. Also, the inhibition at 100 µg/mL on HIV-1 integrase is below 50%.

Turning to `Cc1nn(Cc2ccc3c(c2)c(=O)c(C(=O)O)cn3CC(=O)O)c(C)c1Br` [Compound 13c, 1-(Carboxymethyl)-6-((4-bromo-3,5-dimethyl-1H-pyrazol-1-yl)methyl)-4-oxo-1,4-dihydro-quinoline-3-carboxylic acid], the melting point was in the range of 278 to 280 °C. For the same compound, the inhibition at 100 µg/mL at HIV-1 integrase was below 50%.
